From US20240024093A1, “INTRAOCULAR DRUG DELIVERY SYSTEMS AND METHODS OF USE” (SpyGlass Pharma, Inc., priority 2022, published 2024) come the findings set out here.

Series [1] can be described thus: daily release or elution of Bimatoprost in vitro versus time (FIG. 8). Particulars: four-hundred-day study. The format is physicochemical. An excerpt:
FIG. 8 is an exemplary graph of daily release or elution of a pharmaceutical or therapeutic agent in vitro versus time. […] The target release rate in this study on rabbits was 0.050 to 0.100 micrograms per day.

The nature of series [2]: Bimatoprost sampled in the aqueous humor of dogs over time (FIG. 9). In kind it is in vivo. An excerpt:
FIG. 9 is an exemplary graph of a therapeutic agent delivered to the aqueous humor of an eye of canines versus time.
In this example, there was a low dose group of dogs (Grp 1), a mid-dose group of dogs (Grp 2), a high dose group of dogs (Grp 3), and a placebo group of dogs (Grp 4).

For the molecule `CCNC(=O)CCC/C=C\C[C@@H]1[C@@H](/C=C/[C@@H](O)CCc2ccccc2)[C@H](O)C[C@@H]1O` [Bimatoprost], in series [1], the average release rate result was “less than 0.100 micrograms per day” and the “release rate over the study (release kinetics)” value is listed as “essentially a zero-order and/or a steady state elution rate”. Besides, in series [2] (low dose (Grp 1), mid-dose (Grp 2), high dose (Grp 3) groups, study period of about one hundred thirteen days), the “level of Bimatoprost in the aqueous humor (elution kinetics)” value was “zero-order elution rate”. Also, the “mean measurements of Bimatoprost in the aqueous humor (dose dependence)” value in series [2] (low, mid and high dose groups, FIG. 9) was “increased with the higher doses”.
